Measurements: patent US5731160A, “Induction of antigen specific T-lymphocyte responses by stimulation with peptide loaded MHC class I molecules on antigen processing defective mammalian cell lines” (Rijksuniversiteit Leiden, priority 1992, dated 1998)
Read-outs that look alike come from different tables or passages of the source.

Assays:
T2 cells = experiment: 51Cr release cytotoxicity assay of p53 peptide specific CTL clones on peptide loaded T2 target cells; format: cell-based, human; conditions: peptide titration
Method: As target cells served T2 cells, labeled with 100 μCi ^51 Cr for 1 h at 37° C. […] The target cells were washed once more before adding them to the effector cells. Effector target ratio ranged from 20:1 to 2.5:1 in twofold dilution. […] Total duration of the incubation time was 4 h at 37° C.
The percentage ^51 Cr release was calculated by the formula: [formula] 7. Cloning of CTL by limiting dilution
The clones were tested for specificity on peptide loaded ^51 Cr labeled target cells ranging from E/T 20 to E/T 2.5 in twofold dilution steps.

174CEM.T2 cells = experiment: Primary CTL response induction with p53 peptide loaded 174CEM.T2 cells and HLA-A2.1 positive PBL; format: cell-based, human; conditions: PBL from healthy non-immunized HLA-A2.1 positive donor; peptide 80 μg/ml
Method: 174CEM.T2 (T2) cells in a concentration of 2×10^6 per ml were incubated for 13 hours at 37° C. in a T25 flask (Falcon, Becton & Dickinson, Plymouth, England, cat. no. 3013) in serum-free Iscove's medium (Biochrom KG, Seromed, Berlin, Gemany, cat. no. F0465) with glutamine (2 mM, ICN Biochemicals Inc., Costa Mes, Calif., U.S.A., cat. no. 15-801-55) and antibiotics as mentioned under 2 and p53 peptide at a final concentration of 80 μg/ml. Subsequently the T2 cells were spun down and treated at a density of 20×10^6 cells/ml with Mitomycin C (final concentration 50 μg/ml) in serum-free RPMI 1640 (manufacturer see 2) medium during one hour at 37° C. Thereafter the T2 cells were washed three times im RPMI 1640. Primary CTL responses were induced by filling all wells of a 96-well-U-bottom plate (Costar, Cambridge, Mass., U.S.A., cat. no. 3799) with 1×10^5 Mitomycin-C treated T2 cells in 50 μl of medium (serum-free RPMI 1640 containing glutamine and antibiotics as mentioned before), containing peptide at a concentration of 80 μg/ml. To these stimulator cells were added 4×10^5 HLA-A2.1 positive PBL in 50 μl of medium to each well. Stimulator and responder cells were cocultured for 7 days at 37° C. in an humidified incubator (90% humidity) and 5% CO2 in air.
On days 7 and 14 after primary response induction (see 5) the PBL (responder cells) were restimulated with peptide. […]

RMA-S cells = experiment: Induction of primary CTL responses in vitro with peptide-loaded RMA-S cells; format: cell-based, murine; conditions: for Induction of primary CTL response by peptide-loaded RMA-S cells: NWP SC of unprimed B6 mice, 5-day culture, RMA-S as stimulator cells
Method: (§1) RMA-S or RMA cells were pre-cultured for 36 h at 22° C. or 37° C. in IMDM medium supplemented with 2% human pooled serum, penicillin (100 IU/ml), kanamycin (100 μg/ml), S and 2-ME (2×10^-5 M). […] Without further washing these (peptide-loaded) RMA-S cells were incubated 1:1(v/v) with C57BL/6 nylon wool-passed spleen cells (B6 NWP SC) in 24-well culture plates: 4×10^6 responder cells and 1×10^6 stimulator cells in 1 ml of culture medium per well in IMDM medium supplemented with 10% FCS, penicillin (100 IU/ml), kanamycin (100 μg/ml), and 2-ME(2×10^-5 M). For a primary CTL response NWP SC of non-immunized C57BL/6 mice were used.
(§2) After 5 days of culture the effectors were harvested on a lymphoprep (Nycomed Pharma, Oslo, Norway) gradient and tested for cytotoxic function on 2000 ^51 Cr-labeled target cells ranging from E/T 50 to E/T 0.8 in twofold dilution steps. The percentage specific ^51 Cr release was calculated by the formula: [formula]
Background (medium) release was always <25% of maximal (2% Triton X-100) release. The SE of triplicate culture was always <5% specific ^51 Cr release. Cytolytic activity calculated from individual dose-response curves is expressed as lytic units per 10^6 effector cells. Calculations were performed using linear regression. As target cells served: B6 mouse embryo cells, treated for 2 days with 50 U/ml IFN-γ at 37° C., LPS-induced (30 μg/ml LPS-B, Bacto Lab., Difco, Detroit, Mich., added to spleen cells for 5 days at 37° C.) B cell blasts from C57BL/6 mice (LPS) or EL4 cell (thymoma cell line of C57BL/6 origin, expressing K^b and Db). […] Virus-infected target cells were prepared by incubating 10^7 target cells with 300 HAU of nonvirulent Sendai virus in 1 ml of medium for 1 h or 12 h before labeling with ^51 Cr (28).
Induction of primary CTL responses in vitro with peptide-loaded RMA-S cells. NWP SC of B6 unprimed mice were stimulated 1:1 (v/v) once in vitro with RMA-S cells, pre-cultured for 36 h at 22° C., only or incubated with 50 μM A16 peptide or 50 μM S16 peptide. Peptide was present during the 5-day culture at 25 μM concentration. The effectors were harvested and tested on B6 mouse embryo cells (MEC) and B6 LPS-induced B cell blasts (LPS) as target cells, without or with 50 μM A16 and S16, respectively.
Peptide titration at induction level (A) and at target level (B) of primary CTL induced by peptide-loaded RMA-S cells.
Primary and secondary CTL responses induced by peptide-loaded RMA-S cells. For primary CTL responses NWP SC of B6 unprimed mice were used (A and B). For secondary CTL responses NWP SC of B6 mice were primed once i.p. with non-virulent Sendai virus (C and D).

target cells = conditions: references 26 and 12; cited from earlier work
[1] = tested on: MHC class I molecules (H-2) on RMA and RMA-S cells; experiment: Direct peptide binding studies with 125I-labeled S9 on RMA and RMA-S cells; set-up: species or system murine
Method: RMA and RMA-S cells were cultured for 36 h at 26° C. in Iscove's medium supplemented with 2% human pooled serum. […] MHC class I molecules were immunoprecipitated using rabbit anti-H-2^b serum (29). Class I-associated peptide was quantitated by γ-spectrometry. For determination of H-2 levels 10^6 cells were iodinated using lactoperoxidase-catalyzed iodination. Subsequently cells were washed three times in PBS and lysed in TRITON X-100 lysis buffer. H-2 antigens were precipitated from equal amounts of trichloro-acetic acid (TCA)-precipitable counts (30) using rabbit anti-H-2^b serum (29). Immunoprecipitates were analysed by SDS-PAGE on 12% gels, and gels were exposed to Kodak (Rochester, N.Y.) X-AR5 (photographic film) films. Results were expressed in arbitrary units. One unit is defined as the level of cell surface H-2 per cell and peptide binding per cell, respectively on RMA cells.
Direct peptide binding studies on RMA and RMA-S cells. […] MHC class I molecules were immunoprecipitated using rabbit anti-H-2^b serum. Class I-associated peptide was quantitated by γ-spectrometry. Results are means of duplicate experiments and shown in dpm after subtraction of normal serum control precipitates (A). In (B) 26° C. pre-cultured RMA and RMA-S cells were surface iodinated and H-2 antigens were precipitated from equal amounts of TCA-precipitable counts using rabbit anti-H-2^b serum. The amount of cell surface H-2 on RMA-S cells is depicted relative to the amount on […]. […] The amount of class I-associated peptide on RMA-S cells is depicted relative to the amount on RMA-S cells, which is set at 1 arbitrary unit. Similar results were obtained in three independent experiments.

RMA cells = experiment: Induction of primary CTL responses with peptide-loaded parental RMA cells; format: cell-based, murine; conditions: any peptide concentration, pre-culture at 22° C. or 37° C.
Method: as §1, §2
Background (medium) release was always <25% of maximal (2% Triton X-100) release. The SE of triplicate culture was always <5% specific ^51 Cr release. Cytolytic activity calculated from individual dose-response curves is expressed as lytic units per 10^6 effector cells. Calculations were performed using linear regression. […]

Sendai virus = conditions: reference 12, cited from earlier work
HLA-A2.1 = target: T1, HLA-A2.1 (Homo sapiens, UniProt P04439); experiment: Peptide binding to HLA-A2.1 on (174.CEM) T2 cells; conditions: 200 μg/ml peptide, BB7.2 immunofluorescence
T1 construct: detected by antibody BB7.2
T1 sequence (P04439 25-365): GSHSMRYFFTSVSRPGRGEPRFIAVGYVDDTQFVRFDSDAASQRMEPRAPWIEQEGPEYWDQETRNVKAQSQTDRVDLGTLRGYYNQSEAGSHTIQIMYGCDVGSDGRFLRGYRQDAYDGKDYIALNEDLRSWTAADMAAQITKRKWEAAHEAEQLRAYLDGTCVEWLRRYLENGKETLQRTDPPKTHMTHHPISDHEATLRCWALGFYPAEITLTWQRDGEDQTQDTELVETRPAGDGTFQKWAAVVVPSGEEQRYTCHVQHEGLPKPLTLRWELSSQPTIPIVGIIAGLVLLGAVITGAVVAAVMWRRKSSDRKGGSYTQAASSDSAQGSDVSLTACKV
T1 sequence (P61769 21-119 partner): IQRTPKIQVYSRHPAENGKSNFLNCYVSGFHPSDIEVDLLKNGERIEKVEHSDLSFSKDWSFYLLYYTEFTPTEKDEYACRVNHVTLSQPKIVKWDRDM
Method: Of this suspension 40 μl was put into a V bottomed 96 well plate (Greiner GmbH, Frickenhausen, Germany: 651101) together with 10 μl of the individual peptide dilutions (of 1 mg/ml). […] After a centrifuge round of 1200 rpm the pellet was resuspended in 50 μl of saturating amounts of HLA-A2.1 specific mouse monoclonal antibody BB7.2 for 30 minutes at 4° C.

[2] = 700 nM 125I-S9, 1 h, 26° C., FIG. 4B

CC(C)C[C@H](NC(=O)[C@@H](N)CC(C)C)C(=O)NCC(=O)N[C@@H](CCCNC(=N)N)C(=O)N[C@@H](CC(N)=O)C(=O)N[C@@H](CO)C(=O)N[C@@H](Cc1ccccc1)C(=O)N[C@@H](CCC(=O)O)C(=O)N[C@H](C(=O)O)C(C)C [A8]
peptide concentration sufficient for target cell sensitization (T2 cells): 20 ng/mL | Generation of CTL response against autologous peptide in vitro (174CEM.T2 cells): possible to generate a CTL response against an autologous peptide

CDSGPSNTPPEIHPW (CDSGPSNTPPEIHPVV) [A16]
Induction of primary CTL response by peptide-loaded RMA-S cells (RMA-S cells): Primary CTL responses could be induced | Sensitization of target cells for lysis by CTL (target cells): sensitize target cells for lysis by a CTL clone

FAPGNYPAL [S9, Sendai virus nucleoprotein peptide of 9 aa]
minimally required concentration for primary response induction by peptide-loaded RMA-S cells (RMA-S cells; FIG. 3A and B): 1 µM | Induction of primary CTL response by peptide-loaded RMA-S cells (RMA-S cells): primary response was obtained only by stimulation of T cells with peptide-loaded RMA-S cells | difference in peptide binding per cell between RMA and RMA-S cells [1, 2]: 2.5 fold | peptide binding per H-2 molecule on RMA-S cells versus RMA cells [1, 2]: tenfold higher | peptide concentration giving comparable binding, on RMA-S (26° C.) ([1]; comparable to RMA at 1 μM, FIG. 4A): 1 nM | peptide concentration giving comparable binding, on RMA (26° C.) ([1]; comparable to RMA-S at 1 nM, FIG. 4A): 1 µM | amount of peptide bound to RMA cells at 20 μM ([1]; compared with RMA-S cells at 1 μM): did not reach the amount of peptide bount to RMA-S cells observed at 1 μM | Induction of primary CTL response by peptide-loaded RMA cells (RMA cells): non-stimulatory

HGEFAPGNYPALWSYA [S16]
Induction of primary CTL response by peptide-loaded RMA-S cells (RMA-S cells): Primary CTL responses could be induced | Induction of CTL memory in vivo by vaccination with peptide (Sendai virus): induces CTL memory in vivo | Protection against lethal Sendai virus infection (Sendai virus): induce protective immunity against a lethal Sendai virus infection | Protection against lethal Sendai virus infection (Sendai virus; listed as Sendai virus 16-mer peptide): protection against otherwise lethal Sendai virus doses | Sensitization of target cells for lysis by CTL (target cells): sensitize target cells for lysis by specific H-2K^b -restricted CTL

RMPEAAPPV [D6]
Binding to HLA-A2.1 (HLA-A2.1): bind to the HLA-A2.1 molecule
